Test results from US20230077362A1 (CORTEVA AGRISCIENCE LLC, priority 2019, published 2023).
Like-named read-outs stand apart in the source and are kept apart here.

How the values were obtained:
[1] = test system: Cabbage Looper (Trichoplusia ni) ("CL"), second instar larvae; assay: Bioassay on cabbage looper (CL), 128-well diet tray assay; type: in vivo; conditions: for CL rating: C = not tested, D = no activity noticed
Outline: (§1)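 After sealing with a clear self-adhesive lid, the trays are incubated at 25° C. with 14 h light and 10 h dark for 5 to 7 days; mortality in each well is recorded as a percentage and averaged across the eight wells.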

[2] = test system: Beet Armyworm (Spodoptera exigua) ("BAW"), second instar larvae; assay: Bioassay on beet armyworm (BAW), 128-well diet tray assay; type: in vivo; conditions: for pest or weed control at 50 µg/cm2: Spodoptera exigua; for BAW rating: C = not tested, D = no activity noticed
Outline: as §1

[3] = Trichoplusia ni, read-out: CL rating
[4] = Trichoplusia ni, read-out: CL (Biological Results, rating)
[5] = read-out: BAW (Biological Results, rating)

SMILES	pest or weed control at 50 µg/cm2 [1, 3] [%]	pest or weed control at 50 µg/cm2 ([2]; read-out: BAW rating) [%]	pest or weed control at 50 µg/cm2 [1, 4] [%]	pest or weed control at 50 µg/cm2 [2, 5] [%]	further results
Cc1ccc(Cc2ccccc2)c(N2C(=O)CS/C2=N\C(=O)Nc2ccc(-c3ncn(-c4ccc(OC(F)(F)F)cc4)n3)cc2C)c1 [Compound J456, (Z)-1-(3-(2-Benzyl-5-methylphenyl)-4-oxothiazolidin-2-ylidene)-3-(2-methyl-4-(1-(4-(trifluoromethoxy)phenyl)-1H-1,2,4-triazol-3-yl)phenyl)urea]	50 to 100	50 to 100	–	–	–
CCOCc1ccc(C)cc1N1C(=O)CS/C1=N\C(=O)Nc1ccc(-c2cn(-c3ccc(S(F)(F)(F)(F)F)cc3)cn2)cc1C [Compound J615, (Z)-1-(3-(2-(Ethoxymethyl)-5-methylphenyl)-4-oxothiazolidin-2-ylidene)-3-(2-methyl-4-(1-(4-(pentafluoro-λ^6-sulfaneyl)phenyl)-1H-imidazol-4-yl)phenyl)urea]	50 to 100	50 to 100	–	–	–
CC(C)c1ccc(N(C)C)cc1N1C(=O)CS/C1=N\C(=O)Nc1ccc(-c2ncn(-c3ccc(C(F)F)cn3)n2)cc1F [Compound J347]	–	–	–	–	CL (Biological Results, rating) ([1]; Cabbage Looper (Trichoplusia ni), C = Not Tested): A (50-100); BAW (Biological Results, rating) ([2]; Beet Armyworm (Spodoptera exigua), C = Not Tested): A (50-100)
Cc1ccc(C(C)C)c(N2C(=O)CS/C2=N\C(=O)Nc2ccc(-c3ncn(-c4ccc(OC(F)(F)F)cc4)n3)cc2C#N)c1 [Compound J227, (Z)-1-(2-cyano-4-(1-(4-(trifluoromethoxy)phenyl)-1H-1,2,4-triazol-3-yl)phenyl)-3-(3-(2-isopropyl-5-methylphenyl)-4-oxothiazolidin-2-ylidene)urea]	–	–	50 to 100	50 to 100	–
COc1ccc(C(C)C)c(N2C(=O)CS/C2=N\C(=O)Nc2ccc(-c3ncn(-c4ccc(OCC(F)(F)F)cc4)n3)cc2F)c1 [Compound J58, (Z)-1-(2-Fluoro-4-(1-(4-(2,2,2-trifluoroethoxy)phenyl)-1H-1,2,4-triazol-3-yl)phenyl)-3-(3-(2-isopropyl-5-methoxyphenyl)-4-oxothiazolidin-2-ylidene)urea]	–	–	50 to 100	50 to 100	–
Cc1cc(-c2ncn(-c3ccc(OC(F)(F)C(F)(F)F)cc3)n2)ccc1NC(=O)/N=C1\SCC(=O)N1c1cccc(C)c1COCC(F)(F)F [Compound J682]	–	–	–	–	CL rating ([1]; Table ABC, species CL): A (50-100); BAW rating ([2]; Table ABC, species BAW): A (50-100)
CCCNc1ccc(C(C)C)c(N2C(=O)CS/C2=N\C(=O)Nc2ccc(-c3ncn(-c4ccc(OC(F)(F)F)cc4)n3)cc2C)c1 [Compound J128, (Z)-1-(3-(2-Isopropyl-5-(propylamino)phenyl)-4-oxothiazolidin-2-ylidene)-3-(2-methyl-4-(1-(4-(trifluoromethoxy)phenyl)-1H-1,2,4-triazol-3-yl)phenyl)urea]	–	–	50 to 100	50 to 100	–
CCOC(C)c1ccc(C)cc1N1C(=O)CS/C1=N\C(=O)Nc1ccc(-c2ncn(-c3ccc(OC(F)(F)F)cc3)n2)cc1OCOC (stereo not shown) [Compound J174, (Z)-1-(3-(2-(1-Ethoxyethyl)-5-methylphenyl)-4-oxothiazolidin-2-ylidene)-3-(2-(methoxymethoxy)-4-(1-(4-(trifluoromethoxy)phenyl)-1H-1,2,4-triazol-3-yl)phenyl)urea]	–	–	50 to 100	50 to 100	–
CCOCc1ccc(C)cc1N1C(=O)CS/C1=N\C(=O)Nc1ccc(-c2ncn(-c3ccc(C(F)(F)C(F)(F)F)cc3)n2)cc1F [Compound J795, (Z)-1-(3-(2-(Ethoxymethyl)-5-methylphenyl)-4-oxothiazolidin-2-ylidene)-3-(2-fluoro-4-(1-(4-(perfluoroethyl)phenyl)-1H-1,2,4-triazol-3-yl)phenyl)urea]	–	–	–	–	mortality at 50 µg/cm2 ([1]; Trichoplusia ni, Table ABC, species CL, 128-well diet tray assay, second instar larvae, read-out: CL rating (% control or mortality class)): 50 to 100%; BAW rating (% control or mortality class) ([2]; Table ABC, species BAW, 128-well diet tray assay, second instar larvae): A (50-100)
CC(C)c1cc(F)c(N(C)C)cc1N1C(=O)CS/C1=N\C(=O)Nc1ccc(-n2cnc(-c3ccc(OC(F)(F)F)cc3)n2)cc1 [Compound J410, (Z)-1-(3-(5-(Dimethylamino)-4-fluoro-2-isopropylphenyl)-4-oxothiazolidin-2-ylidene)-3-(4-(3-(4-(trifluoromethoxy)phenyl)-1H-1,2,4-triazol-1-yl)phenyl)urea]	50 to 100	50 to 100	–	–	–
COC(c1ccc(C)cc1N1C(=O)CS/C1=N\C(=O)Nc1ccc(-n2cnc(-c3ccc(OC(F)(F)F)cc3)n2)cc1)C(F)(F)F (stereo not shown) [Compound J405, (Z)-1-(3-(5-Methyl-2-(2,2,2-trifluoro-1-methoxyethyl)phenyl)-4-oxothiazolidin-2-ylidene)-3-(4-(3-(4-(trifluoromethoxy)phenyl)-1H-1,2,4-triazol-1-yl)phenyl)urea]	50 to 100	50 to 100	–	–	–
Cc1ccc(COCC(C)(F)F)c(N2C(=O)CS/C2=N\C(=O)Nc2ccc(-c3ncn(-c4ccc(OC(F)(F)F)cc4)n3)cc2F)c1 [Compound J535]	–	–	–	–	CL rating ([1]; Table ABC, species CL): A (50-100); BAW rating ([2]; Table ABC, species BAW): A (50-100)
Cc1ccc(C(C)C)c(N2C(=O)CS/C2=N\C(=O)Nc2ccc(-c3nnc(-c4ccc(OC(F)(F)F)cc4)o3)cc2F)c1 [Compound J607, (Z)-1-(2-fluoro-4-(5-(4-(trifluoromethoxy)phenyl)-1,3,4-oxadiazol-2-yl)phenyl)-3-(3-(2-isopropyl-5-methylphenyl)-4-oxothiazolidin-2-ylidene)urea]	50 to 100	50 to 100	–	–	–
Cc1ccc(COCC(F)(F)F)c(N2C(=O)CS/C2=N\C(=O)Nc2ccc(-c3ncn(-c4ccc(S(F)(F)(F)(F)F)cc4)n3)cc2C)c1 [Compound J549]	–	–	–	–	CL rating ([1]; Table ABC, species CL): A (50-100); BAW rating ([2]; Table ABC, species BAW): A (50-100)
Cc1ccc(C(F)(F)F)c(N2C(=O)CS/C2=N\C(=O)Nc2ccc(-c3ncn(-c4ccc(OC(F)(F)F)cc4)n3)cc2F)c1 [Compound J30, (Z)-1-(2-Fluoro-4-(1-(4-(trifluoromethoxy)phenyl)-1H-1,2,4-triazol-3-yl)phenyl)-3-(3-(5-methyl-2-(trifluoromethyl)phenyl)-4-oxothiazolidin-2-ylidene)urea]	–	–	50 to 100	50 to 100	–
COC(C)c1ccc(C)cc1N1C(=O)CS/C1=N\C(=O)Nc1ccc(-c2ncn(-c3ccc(C(F)(F)F)cn3)n2)cc1C(F)(F)F (stereo not shown) [Compound J303, (Z)-1-(3-(2-(1-Methoxyethyl)-5-methylphenyl)-4-oxothiazolidin-2-ylidene)-3-(2-(trifluoromethyl)-4-(1-(5-(trifluoromethyl)pyridin-2-yl)-1H-1,2,4-triazol-3-yl)phenyl)urea]	–	–	50 to 100	50 to 100	–
COC(C)c1ccc(C)cc1N1C(=O)CS/C1=N\C(=O)Nc1ccc(-c2nnc(-c3ccc(OC(F)(F)F)cc3)o2)cc1F (stereo not shown) [Compound J429, (Z)-1-(2-Fluoro-4-(5-(4-(trifluoromethoxy)phenyl)-1,3,4-oxadiazol-2-yl)phenyl)-3-(3-(2-(1-methoxyethyl)-5-methylphenyl)-4-oxothiazolidin-2-ylidene)urea]	50 to 100	50 to 100	–	–	–
CC(C)c1ccc(N(C)C)cc1N1C(=O)CS/C1=N\C(=O)Nc1ccc(-c2ncn(-c3ccc(OC(F)(F)F)cn3)n2)cc1F [Compound J238, (Z)-1-(3-(5-(Dimethylamino)-2-isopropylphenyl)-4-oxothiazolidin-2-ylidene)-3-(2-fluoro-4-(1-(5-(trifluoromethoxy)pyridin-2-yl)-1H-1,2,4-triazol-3-yl)phenyl)urea]	–	–	50 to 100	50 to 100	–
Cc1ccc(COCc2ccc(F)cc2C(F)(F)F)c(N2C(=O)CS/C2=N\C(=O)Nc2ccc(-c3ncn(-c4ccc(OC(F)(F)F)cc4)n3)cc2F)c1 [Compound J621, (Z)-1-(3-(2-(((4-Fluoro-2-(trifluoromethyl)benzyl)oxy)methyl)-5-methylphenyl)-4-oxothiazolidin-2-ylidene)-3-(2-fluoro-4-(1-(4-(trifluoromethoxy)phenyl)-1H-1,2,4-triazol-3-yl)phenyl)urea]	50 to 100	50 to 100	–	–	–
CC(C)c1cc(F)c(N(C)C)cc1N1C(=O)CS/C1=N\C(=O)Nc1ccc(-c2cn(-c3ccc(S(F)(F)(F)(F)F)cc3)cn2)cc1F [Compound J604, (Z)-1-(3-(5-(Dimethylamino)-4-fluoro-2-isopropylphenyl)-4-oxothiazolidin-2-ylidene)-3-(2-fluoro-4-(1-(4-(pentafluoro-λ^6-sulfaneyl)phenyl)-1H-imidazol-4-yl)phenyl)urea]	50 to 100	50 to 100	–	–	–
COC(C)c1ccc(C)cc1N1C(=O)CS/C1=N\C(=O)Nc1ccc(-c2ncn(-c3ccc(C(F)(F)F)cn3)n2)cc1 (stereo not shown) [Compound J338, (Z)-1-(3-(2-(1-Methoxyethyl)-5-methylphenyl)-4-oxothiazolidin-2-ylidene)-3-(4-(1-(5-(trifluoromethyl)pyridin-2-yl)-1H-1,2,4-triazol-3-yl)phenyl)urea]	–	–	50 to 100	50 to 100	–
COC(C)c1ccc(C)cc1N1C(=O)CS/C1=N\C(=O)Nc1ccc(-c2nc(-c3ccc(OC(F)(F)F)cc3)no2)cc1F (stereo not shown) [Compound J434, (Z)-1-(2-Fluoro-4-(3-(4-(trifluoromethoxy)phenyl)-1,2,4-oxadiazol-5-yl)phenyl)-3-(3-(2-(1-methoxyethyl)-5-methylphenyl)-4-oxothiazolidin-2-ylidene)urea]	50 to 100	50 to 100	–	–	–
COc1cc(-c2ncn(-c3ccc(OC(F)(F)C(F)(F)F)cc3)n2)ccc1NC(=O)/N=C1\SCC(=O)N1c1cc(C)ccc1C(C)C [Compound J28, (Z)-1-(3-(2-Isopropyl-5-methylphenyl)-4-oxothiazolidin-2-ylidene)-3-(2-methoxy-4-(1-(4-(perfluoroethoxy)phenyl)-1H-1,2,4-triazol-3-yl)phenyl)urea]	–	–	50 to 100	50 to 100	–
